# Source: patent US20100317845A1, “Sucrose of new confrontational polymorphs and manufacturing method thereof” (NATIONAL CENTRAL UNIVERSITY, priority 2009, published 2010)
# How the values were obtained:
# [1] = physchem; type: physicochemical; conditions: 25 °C
# [2] = physchem; type: physicochemical; conditions: 60 °C, water
# Description: In Step S42, preheat 60 mL of furfuryl alcohol below 60° C. for approximately 15 minutes. In Step S43, mix the furfuryl alcohol and the saturated sucrose solution in a ratio of 1:1, and stir the mixed solution uniformly by a rotation speed of 500 rpm. In Step S44, maintain the mixed solution at 60° C., and crystal starts forming after approximately 4 to 5 hours. In Step S45, turn off the power of the constant-temperature water tank, and lower the temperature to room temperature naturally, and maintain this state for three days until the crystallization completes, and filter the mixed solution, and rinse the recrystallized sucrose by ethyl alcohol or acetone, and bake the crystal sucrose in a vacuum oven at 40° C. for 24 hours to obtain a Form II sucrose of a new conformational polymorph in accordance with the present invention.
structure (smiles),measurement,setting,value
"OC[C@H]1O[C@@](CO)(O[C@H]2O[C@H](CO)[C@@H](O)[C@H](O)[C@H]2O)[C@@H](O)[C@@H]1O [Form I sucrose, sucrose]",solubility,[1],1850 to 1950 mg/mL
same,solubility,[2],2870 mg/mL
